Legend:
[1] = target: T1, Mdm2/p53 binding (GST-Mdm2 / His-p53) (Homo sapiens, UniProt Q00987, L33E); assay: Mdm2/p53 binding assay (HTRF, His-p53 and GST-Mdm2); conditions: His-p53 (aa 1-132) and GST-Mdm2 (aa 25-108, L33E) 6.25 nM each; 25°C, 1 hour; values given as ranges
T1 construct: Mdm2 partial protein having Mdm2 amino acids at positions 25 to 108
How it was run: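 Binding was detected by HTRF (ex 320 nm, em 620/665 nm) after 1 h at 25 °C, using Eu-cryptate anti-GST and XL665 anti-His antibodies. The protein pair was GST-Mdm2 (residues 25–108, L33E) with His-p53 (residues 1–132), each 6.25 nM in the protein dilution. T/C used no-compound control and no-p53 background, and IC50 came from sigmoid fitting.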

[2] = system: human lung cancer-derived cell line NCI-H460 having wild-type p53; assay: Cell growth inhibition assay (MTT); assay type: cell-based; conditions: 72 h, NCI-H460 cells, 3 days culture, values given as ranges, read-out: 50% growth inhibition concentration (GI50 value)
How it was run: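 NCI-H460 cells (wild-type p53) seeded at 500 cells/well in RPMI1640 with 10% FBS, then treated the next day and grown 3 days at 37 °C. MTT read-out at OD 540 nm (660 nm reference), taken at dosing and at day 3. GI50 derived from T/C (%) dose-response curves.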

T1 sequence (Q00987 25-108 L33E): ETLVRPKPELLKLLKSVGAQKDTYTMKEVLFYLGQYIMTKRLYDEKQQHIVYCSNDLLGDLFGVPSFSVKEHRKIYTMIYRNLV

Question: What does the source list for `CCN(CC)C(=O)[C@@H]1CC[C@@H](NC(=O)[C@@H]2NC3(CCC(C)(C)CC3)[C@@]3(C(=O)Nc4nc(Cl)ccc43)[C@H]2c2ccnc(Cl)c2F)CO1` [Example 117, (3′R, 4′S,5′R)-6″-chloro-4′-(2-chloro-3-fluoropyridin-4-yl)-N-[(3R,6S)-6-(diethylcarbamoyl)tetrahydro-2H-pyran-3-yl]-4,4-dimethyl-2″-oxo-1″,2″-dihydrodispiro[cyclohexane-1,2′-pyrrolidine-3′,3″-pyrrolo[2,3-b]pyridine]-5′-carboxamide]?
Answer: IC50 [1]: 1 to 50 nM; GI50 [2]: 100 to 500 nM

Question: What does the source list for `CC1(C)CCC2(CC1)N[C@@H](C(=O)N[C@H]1C[C@H](C(C)(C)O)C1)[C@H](c1ccnc(Cl)c1F)[C@]21C(=O)Nc2cc(Cl)ccc21` [Example 154, (3′R, 4′S,5′R)-6′-chloro-4′-(2-chloro-3-fluoropyridin-4-yl)-N-[trans-3-(2-hydroxypropan-2-yl)cyclobutyl]-4,4-dimethyl-2″-oxo-1″,2″-dihydrodispiro[cyclohexane-1,2′-pyrrolidine-3′,3″-indole]-5′-carboxamide]?
Answer: IC50 [1]: 50 to 100 nM; GI50 [2]: 100 to 500 nM

Question: With `Cc1nnc([C@@H]2CC[C@@H](NC(=O)[C@@H]3NC4(CCC(C)(C)CC4)[C@@]4(C(=O)Nc5cc(Cl)ccc54)[C@H]3c3ccnc(Cl)c3F)CO2)o1` [Example 156] as the molecule, how does the IC50 [1] read?
Answer: 1 to 50 nM

Question: What about the GI50 [2] of the same molecule?
Answer: < 100 nM

Question: With `CC1(C)CCC2(CC1)N[C@@H](C(=O)N[C@@H]1CC[C@@H](CCO)OC1)[C@H](c1ccnc(Cl)c1F)[C@]21C(=O)Nc2cc(Cl)ccc21` [Example 160, (3′R, 4′S,5′R)-6″-chloro-4′-(2-chloro-3-fluoropyridin-4-yl)-N-[(3R,6S)-6-(2-hydroxyethyl)tetrahydro-2H-pyran-3-yl]-4,4-dimethyl-2″-oxo-1″,2″-dihydrodispiro[cyclohexane-1,2′-pyrrolidine-3′,3″-indole]-5′-carboxamide] as the molecule, how does the IC50 [1] read?
Answer: 50 to 100 nM

Question: What about the GI50 [2] of the same molecule?
Answer: < 100 nM

Question: For `CC1(C)CCC2(CC1)N[C@@H](C(=O)N[C@@H]1CC[C@@H](Cc3nnco3)OC1)[C@H](c1ccnc(Cl)c1F)[C@]21C(=O)Nc2cc(Cl)ccc21` [Example 161, (3′R, 4′S,5′R)-6″-chloro-4′-(2-chloro-3-fluoropyridin-4-yl)-4,4-dimethyl-N-[(3R,6S)-6-(1,3,4-oxadiazol-2-ylmethyl)tetrahydro-2H-pyran-3-yl]-2″-oxo-1″,2″-dihydrodispiro[cyclohexane-1,2′-pyrrolidine-3′,3″-indole]-5′-carboxamide], which IC50 [1] is on record?
Answer: 50 to 100 nM

Question: And the GI50 [2]?
Answer: 100 to 500 nM

Question: With `CC1(C)CCC2(CC1)N[C@@H](C(=O)NC1CC3(C1)CC(CO)(CO)C3)[C@H](c1ccnc(Cl)c1F)[C@]21C(=O)Nc2cc(Cl)ccc21` [Example 162, (3′R, 4′S,5′R)—N-[6,6-bis(hydroxymethyl)spiro[3.3]hepta-2-yl]-6″-chloro-4′-(2-chloro-3-fluoropyridin-4-yl)-4,4-dimethyl-2′-oxo-1″,2″-dihydrodispiro[cyclohexane-1,2′-pyrrolidine-3′,3″-indole]-5′-carboxamide] as the molecule, how does the IC50 [1] read?
Answer: 50 to 100 nM

Question: And the GI50 [2]?
Answer: 100 to 500 nM

Question: What does the source list for `O=C(N[C@@H]1CC[C@@H](CO)OC1)[C@@H]1NC2(CC(CF)(CF)C2)[C@@]2(C(=O)Nc3cc(Cl)ccc32)[C@H]1c1cc(F)cc(Cl)c1` [Example 164, (3′R, 4′R, 5′R)-6″-chloro-4′-(3-chloro-5-fluorophenyl)-3,3-bis(fluoromethyl)-N-[(3R,6S)-6-(hydroxymethyl)tetrahydro-2H-pyran-3-yl]-2″-oxo-1″,2″-dihydrodispiro[cyclobutane-1,2′-pyrrolidine-3′,3″-indole]-5′-carboxamide]?
Answer: IC50 [1]: 100 to 500 nM; GI50 [2]: 1000 to 5000 nM

Question: With `CC1(C)CCC2(CC1)N[C@@H](C(=O)N[C@@H]1CC[C@@H](C(=O)O)OC1)[C@H](c1ccnc(Cl)c1F)[C@]21C(=O)Nc2cc(Cl)ccc21` [Example 174, (2S,5R)-5-({[(3′B, 4′S,5′R)-6″-chloro-4′-(2-chloro-3-fluoropyridin-4-yl)-4,4-dimethyl-2″-oxo-1′″, 2″-dihydrodispiro[cyclohexane-1,2-pyrrolidine-3′,3″-indole]-5′-yl]carbonyl}amino)tetrahydro-2H-pyran-2-carboxylic acid] as the molecule, how does the IC50 [1] read?
Answer: 1 to 50 nM

Question: What about the GI50 [2] of the same molecule?
Answer: > 5000 nM

Question: `CC1(C)CCC2(CC1)N[C@@H](C(=O)N[C@@H]1CC[C@@H](C(N)=O)OC1)[C@H](c1cccc(Cl)c1F)[C@]21C(=O)Nc2nc(Cl)ccc21` [Example 179, (3′R, 4′S,5′R)—N-[(3R,6S)-6-carbamoyltetrahydro-2H-pyran-3-yl]-6″-chloro-4′-(3-chloro-2-fluorophenyl)-4,4-dimethyl-2″-oxo-1″,2″-dihydrodispiro[cyclohexane-1,2′-pyrrolidine-3′,3″-pyrrolo[2,3-b]pyridine]-5′-carboxamide] was tested. Which IC50 [1] did it give?
Answer: 1 to 50 nM

Question: What about the GI50 [2] of the same molecule?
Answer: 1000 to 5000 nM

Question: What does the source list for `C[C@@H](O)[C@@H]1CC[C@@H](NC(=O)[C@@H]2NC3(CCC(C)(C)CC3)[C@@]3(C(=O)Nc4nc(Cl)ccc43)[C@H]2c2cccc(Cl)c2F)CO1` [Example 180, (3′R, 4′S,5′R)-6″-chloro-4′-(3-chloro-2-fluorophenyl)-N-{(3R,6S)-6-[(1R)-1-hydroxyethyl]tetrahydro-2H-pyran-3-yl}-4,4-dimethyl-2″-oxo-1″,2″-dihydrodispiro[cyclohexane-1,2′-pyrrolidine-3′,3″-pyrrolo[2,3-b]pyridine]-5′-carboxamide]?
Answer: IC50 [1]: 1 to 50 nM; GI50 [2]: 1000 to 5000 nM

Question: Which IC50 [1] does the source give for `C[C@@H](O)[C@@H]1CC[C@@H](NC(=O)[C@@H]2NC3(CCC(C)(C)CC3)[C@@]3(C(=O)Nc4cc(Cl)ccc43)[C@H]2c2cccc(Cl)c2F)CO1` [Example 182, (3′R, 4′S,5′R)-6″-chloro-4′-(3-chloro-2-fluorophenyl)-N-{(3S,6S)-6-[(1R)-1-hydroxyethyl]tetrahydro-2H-pyran-3-yl}-4,4-dimethyl-2′-oxo-1″,2″-dihydrodispiro[cyclohexane-1,2′-pyrrolidine-3′,3″-indole]-5-carboxamide] here?
Answer: 1 to 50 nM

Question: And the GI50 [2]?
Answer: < 100 nM

Question: What does the source list for `CC1(C)CCC2(CC1)N[C@@H](C(=O)N[C@H]1CC[C@H](c3nnco3)CC1)[C@H](c1cccc(Cl)c1F)[C@]21C(=O)Nc2cc(Cl)ccc21` [Example 183, (3′R, 4′S,5′R)-6′-chloro-4′-(3-chloro-2-fluorophenyl)-4,4-dimethyl-N-[trans-4-(1,3,4-oxadiazol-2-yl)cyclohexyl]-2″-oxo-1″,2″-dihydrodispiro[cyclohexane-1,2′-pyrrolidine-3′,3″-indole]-5′-carboxamide]?
Answer: IC50 [1]: 50 to 100 nM; GI50 [2]: 100 to 500 nM

Question: With `CC1(C)CCC2(CC1)N[C@@H](C(=O)N[C@@H]1CC[C@@H](C(N)=O)OC1)[C@H](c1cccc(Cl)c1F)[C@]21C(=O)Nc2cc(Cl)ncc21` [Example 185, (3′R, 4′S,5′R)—N-[(3R,6S)-6-carbamoyltetrahydro-2H-pyran-3-yl]-6″-chloro-4′-(3-chloro-2-fluorophenyl)-4,4-dimethyl-2″-oxo-1″,2″-dihydrodispiro[cyclohexane-1,2-pyrrolidine-3′,3″-pyrrolo[3,2-c]pyridine]-5′-carboxamide] as the molecule, how does the IC50 [1] read?
Answer: 1 to 50 nM

Question: And the GI50 [2]?
Answer: 100 to 500 nM

Question: For `CC1(C)CCC2(CC1)N[C@@H](C(=O)N[C@@H]1CCC(C)(C(=O)O)OC1)[C@H](c1ccnc(Cl)c1F)[C@]21C(=O)Nc2cc(Cl)ccc21` (stereo partly drawn) [Example 186, (5R)-5-({[(3′R, 4′S,5′R)-6″-chloro-4′-(2-chloro-3-fluoropyridin-4-yl)-4,4-dimethyl-2″-oxo-1″,2″-dihydrodispiro[cyclohexane-1,2′-pyrrolidine-3′,3″-indole]-5′-yl]carbonyl}amino)-2-methyltetrahydro-2H-pyran-2-carboxylic acid], which IC50 [1] is on record?
Answer: 1 to 50 nM

Question: What about the GI50 [2] of the same molecule?
Answer: 1000 to 5000 nM
